{
  "source": "ChEMBL document CHEMBL5329209",
  "about": "“Designing photoaffinity tool compounds for the investigation of the DENV NS2B-NS3 protease allosteric binding pocket” (RSC Med Chem, 2023)",
  "data": [
    {"biological_target": "T1, Genome polyprotein (dengue virus type 2, UniProt P29990)", "T1 sequence (P29990 1346-1475 limits assumed)": "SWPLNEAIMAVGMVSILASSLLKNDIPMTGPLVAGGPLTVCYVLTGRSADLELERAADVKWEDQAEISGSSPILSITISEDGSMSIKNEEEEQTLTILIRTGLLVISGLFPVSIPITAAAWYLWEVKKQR", "T1 sequence (P29990 1476-2093 limits assumed)": "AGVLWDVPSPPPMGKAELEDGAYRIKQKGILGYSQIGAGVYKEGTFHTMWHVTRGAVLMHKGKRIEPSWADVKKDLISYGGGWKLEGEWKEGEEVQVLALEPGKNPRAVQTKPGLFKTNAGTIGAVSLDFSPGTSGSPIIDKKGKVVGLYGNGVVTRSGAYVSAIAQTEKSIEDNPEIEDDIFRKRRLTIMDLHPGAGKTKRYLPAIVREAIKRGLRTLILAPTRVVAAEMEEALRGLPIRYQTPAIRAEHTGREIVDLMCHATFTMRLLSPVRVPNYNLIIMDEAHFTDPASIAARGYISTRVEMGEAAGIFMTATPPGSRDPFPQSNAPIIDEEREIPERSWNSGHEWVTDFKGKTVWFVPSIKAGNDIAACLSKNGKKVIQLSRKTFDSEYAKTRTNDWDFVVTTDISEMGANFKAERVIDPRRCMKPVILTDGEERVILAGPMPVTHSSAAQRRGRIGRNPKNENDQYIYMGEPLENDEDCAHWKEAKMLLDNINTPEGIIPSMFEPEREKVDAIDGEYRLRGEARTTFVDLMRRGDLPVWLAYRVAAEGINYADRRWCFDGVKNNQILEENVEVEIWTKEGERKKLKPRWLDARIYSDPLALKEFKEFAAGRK", "experiment": "Inhibition of DENV2 NS2B-NS3 protease using Boc-Gly-Arg-Arg-AMC as substrate by fluorometric analysis", "conditions": "not given", "units": {"IC50": "µM"}, "values": [
      {"compound": "CC1OCCC1SSC[C@@H](NC(=O)c1ccc(C2(C(F)(F)F)N=N2)cc1)C(=O)Nc1nc2cc(O)c(O)cc2s1", "note": "(stereo partly specified)", "IC50": 20},
      {"compound": "O=C(Nc1nc2cc(O)c(O)cc2s1)c1ccc(C2(C(F)(F)F)N=N2)cc1", "IC50": 9.97},
      {"compound": "O=C(CN(CC1CC2C=CC1C2)C(=O)c1ccc(C2(C(F)(F)F)N=N2)cc1)Nc1nc2cc(O)c(O)cc2s1", "note": "(stereo unspecified)", "IC50": 17},
      {"compound": "O=C(N[C@H](CS)C(=O)Nc1nc2cc(O)c(O)cc2s1)c1ccc(C2(C(F)(F)F)N=N2)cc1", "IC50": 13.4},
      {"compound": "CC(C)(C)SSC[C@@H](NC(=O)c1ccc(C2(C(F)(F)F)N=N2)cc1)C(=O)Nc1nc2cc(O)c(O)cc2s1", "IC50": 10.2}
    ]},
    {"biological_target": "T1, Genome polyprotein", "experiment": "Binding affinity to N terminal hexa histidine tagged DENV2 NS2B-NS3 protease assessed as apparent Ki by Dixon plot analysis", "conditions": "read-out: Ki(app)", "units": {"Ki": "µM"}, "values": [
      {"compound": "O=C(Nc1nc2cc(O)c(O)cc2s1)c1ccc(C2(C(F)(F)F)N=N2)cc1", "Ki": 6.32}
    ]}
  ]
}
